In assay [1] the test system is BCR-ABL^+LSC (Kit^+Sca1^+Lin^−GFP^+). Put plainly: Apoptosis of BCR-ABL+ LSCs treated ex vivo (annexin V, flow cytometry). Format: cell-based, mouse. Conditions: for apoptosis of Sca1+GFP+Kit+ BCR-ABL+LSC from spleen: 25-1000 nM, 36 h. As to the method: Apoptosis. Apoptosis of LSCs was performed using annexin V as described below in Supplementary Information and Methods.
Apoptosis. The LSCs were diluted in DMEM, resuspended using a 16-gauge needle, and collected by centrifugation. 1×10^5 cells were resuspended in 200 μl of binding buffer (0.1 M HEPES with 1.4 M NaCl, 25 mM CaCl2, pH 7.4). Annexin V FITC (BD Biosciences) was incubated with cells for 15 min on ice followed by flow cytometric analysis.
The ability of CyPGs derived from arachidonic acid (2 series PGs) to induce apoptosis was tested in cultures of LSCs from FV infected mice and in the murine CML model. […] 15d-PGJ2 is known as a PPAPγ agonist. […] In FIG. 7C Δ^12-PGJ3, 15d-PGJ2 or 9,10-dihydro-15d-PGJ2 are tested for their ability to induce apoptosis in a murine CML model. […] The cells were stained with annexin V-FITC and analyzed by flow cytometry. Representative of N=4. […] Inset: Effect of rosiglitazone on the apoptosis of LSC. Rosiglitazone (0.1-2.0 μM) was incubated with LSC in the culture media for 36 h as described earlier and the cells were subjected to annexin-V staining followed by flow cytometry. […] LSC were treated ex vivo with indicated concentrations of each compound for 36 h.
Following 36 h of incubation, apoptotic cells were quantified by annexin V staining. […] In a related study to address if Δ^12-PGJ3 treatment would cause any degranulation of granulocytes, a rat basophilic cell line ([…]) was treated with 100 nM Δ^12-PGJ3 and the degranulation was followed by quantitating the release of histamine and a second marker of degranulation, hexoseaminidase.
In this experiment, 500,000 BCR-ABL+ LSCs were plated in a 24-well plate followed and were treated with 25 nM PGD2Me or 100 nM ZK118182 (both are agonists of DP) for 24 h. GFP^+ cells were analyzed by flow cytometry. These agonists were purchased from Cayman Chemicals, MI.

The subject of the next assay is LSCs. Put plainly: Apoptosis of LSCs as summarised in the discussion (model not specified or both models). It is filed as cell-based, mouse. The conditions noted are these: FV-induced leukemia and BCR-ABL+ retrovirus-based murine CML model.
Assay [2] has as its system FV-LSCs (M34^+Kit^+Sca1^+). Put plainly: Apoptosis of FV-LSCs treated ex vivo (annexin V, flow cytometry). Format: cell-based, mouse. The conditions noted are these: 25 nM, 36 h; for apoptosis of FV-LSCs: annexin V.
Experimental: On day 14 after infection, spleens were isolated and a single cell suspension of spleen cells was generated. The cells were filtered through a 70 μm sterile filter and flow-through cells were resuspended in RBC lysis buffer followed by centrifugation. Leukemia stem cells were isolated by FACS. Spleen cells were labeled with anti-Kit, Sca1 (BioLegend, San Diego, Calif.) and M34 antibodies. […] As indicated M34^+Kit^+Sca1^+ cells were cultured in Methocult media (Stem Cell Technologies Vancouver BC) M3334 supplemented with 200 ng/ml Sonic Hedgehog (Shh), 15 ng/ml bone morphogenetic protein-4 (BMP4) (both from R&D Systems Minneapolis, Minn.), and 50 ng/ml stem cell factor (SCF; Peprotech).
The cells were stained with annexin V-FITC and analyzed by flow cytometry. […] Means±s.e.m. *P<0.001 compared to vehicle (PBS). […] Inset: Effect of rosiglitazone on the apoptosis of LSC. Rosiglitazone (0.1-2.0 μM) was incubated with LSC in the culture media for 36 h as described earlier and the cells were subjected to annexin-V staining followed by flow cytometry. […] LSC were treated ex vivo with indicated concentrations of each compound for 36 h. Mean±s.e.m. shown *P<0.001.
For assay [3], the system named is murine erythroleukemia (MEL) cells. The experiment in a line: MEL cell apoptosis and viability (MTT, CCK-8). It is filed as cell-based, mouse. The conditions noted are these: anti-leukemic drugs 1 μM, nutlin 5 μM, 24 h, MTT/CCK-8. As to the method:
Cell culture. Murine erythroleukemia (MEL) cells were cultured in DMEM with 10% FBS. In order to examine the production 3-series PGs, BALB/c-derived RAW264.7 macrophage-like cells (ATCC) were cultured in DMEM containing 5% FBS, 250 nM sodium selenite, and 50 μM EPA (as BSA conjugate) for 72 h followed by stimulation with E. coli endotoxin lipopolysaccharide (LPS; Serotype 0111B4; 50 ng/ml) for 30 min. The cells were cultured in fresh DMEM for an additional 24-144 h. Cells cultured with cell culture-grade fatty acid free BSA (Sigma Aldrich) served as a control. Culture media was withdrawn at various times and analyzed for 3-series PGs as described below. Total RNA was isolated from cells or tissues using Trizol reagent as per the instructions of the supplier (Invitrogen, Carlsbad, Calif.) and cDNA was prepared using a High Capacity cDNA Reverse Transcriptase kit (Applied Biosystems, Foster City, Calif.). Semiquantitative RT-PCR for p53 and β-actin was performed with primers as described in Supplementary Methods. Nuclear and cytoplasmic protein extracts of LSCs were prepared using standard methods previously described (Vunta H et al., J Biol Chem. 2007; 282:17964-17973).
Cell viability studies. MEL cells were cultured in DMEM containing 10% FBS and treated with various commonly used anti-leukemic drugs such as daunorubicin (DNR), mitoxantrone (MIT), and cytarabine (CYT) at a final concentration […] for 24 h. […] After 24 h of drug treatment, cell proliferation was measured by MTT assay with CCK-8 kit from Dojindo Molecular Technologies, Inc. (Gaithersburg, Md.). All viability values reported are relative to untreated cells (UT) that was designated to be 100%. Results represent the mean±SEM of three independent observations.
In order to address whether MEL cells are resistant in general to chemotherapy agents, we tested whether MEL cells can be killed by apoptosis when treated with standard anti-leukemia drugs. Treatment with various commonly used anti-leukemic drugs such as daunorubicin (DNR), mitoxantrone (MIT), and cytarabine (CYT) at a final concentration 1 μM for 24 h. […] After 24 h of drug treatment, cell proliferation was measured by MTT assay with CCK-8 kit from Dojindo Molecular Technologies, Inc. (Gaithersburg, Md.). […] The results represent the mean±SEM of three independent observations.

In a further assay the test system is p53. Put plainly: p53 expression in FV-LSCs treated ex vivo (RT-PCR, nuclear extracts). It is filed as cell-based, mouse.
In assay [4] the test system is Friend virus (FV)-induced erythroleukemia. Put plainly: FV-induced erythroleukemia in FV-infected mice, intraperitoneal treatment. Format: in vivo, mouse. The source says:
FV-induced erythroleukemia and production of FV leukemia stem cells (FV-LSCs): BALB/c mice were infected with FV as previously described (Subramanian A et al., J Virol. 2008; 82:382-393; Harandi O F et al., J Clin Invest. 2010; 120:4507-4519). On day 14 after infection, spleens were isolated and a single cell suspension of spleen cells was generated. The cells were filtered through a 70 μm sterile filter and flow-through cells were resuspended in RBC lysis buffer followed by centrifugation. Leukemia stem cells were isolated by FACS. Spleen cells were labeled with anti-Kit, Sca1 (BioLegend, San Diego, Calif.) and M34 antibodies. M34 is a monoclonal antibody that recognizes the envelope protein of SFFV (Chesebro B et al., Virology. 1981; 112:131-144) and was used as previously described (Subramanian A et al., J Virol. 2008; 82:382-393). As indicated M34^+Kit^+Sca1^+ cells were cultured in Methocult media (Stem Cell Technologies Vancouver BC) M3334 supplemented with 200 ng/ml Sonic Hedgehog (Shh), 15 ng/ml bone morphogenetic protein-4 (BMP4) (both from R&D Systems Minneapolis, Minn.), and 50 ng/ml stem cell factor (SCF; Peprotech). For CFU-FV assays, cells were plated in methylcellulose media containing fetal calf serum, but lacking added growth factors as previously described (Mager D L et al., Proc Natl Acad Sci USA. 1981; 78:1703-1707).
Complete blood counts of mice treated with Δ^12-PGJ3 (0.05 mg/kg) were examined. There is no difference in treated mice and untransplanted control mice in terms of white blood cell counts, red blood cell counts or platelet counts. Changes in hematological parameters in FV-infected mice upon treatment with CyPGs were examined. FV-infected Balb/c mice were treated with Δ^12-PGJ3 (0.05 mg/kg) intraperitoneally for 7 d following which the mice were sacrificed and hematological parameters were analyzed on an Advia blood analyzer. FV-infected Δ^12-PGJ3 treated mice were compared to infected vehicle controls. N=5 per group, all data are means±s.e.m. *P<0.05. 3% w/v hydroxypropyl-3-cyclodextrin was used as a vehicle in in vivo experiments. Spleen sizes of FV-infected mice that were treated with either vehicle, 9,10-dihydro-15d-PGJ2 (0.05 mg/kg), or 15d-PGJ2 (0.05 mg/kg) were examined; N=3 pre group. Hematological parameters of Balb/c uninfected, infected, and 15d-PGJ2 treated mice were examined. N=5 per group. All data were means±s.e.m. *P<0.05.
FV-LSC were targeted by 15d-PGJ2 in the spleen of FV-infected mice. FV-infected mice were treated with 15d-PGJ2 or 9,10-dihydro-15d-PGJ2 at 0.05 mg/kg for 7 d. The splenic LSC (M34^+Sca1^+Kit^+) cells were analyzed by flow cytometry on day 14 post infection. […] Uninfected and infected vehicle controls were used for comparison. N=3; *P<0.05. […] The colonies were counted 10-14 days after plating. N=3 mice per group, *p<0.05.

The subject of assay [5] is FV-LSCs transplanted into BALB/c-Stk^−/− mice.
Experimental: Transplant of FV-LSCs into BALB/c-Stk^−/− mice: FV-LSCs were generated as described above. 2.5×10^5 FV-LSCs were transplanted into BALB/c-Stk^−/− mice by retro-orbital injection. Six weeks after transplant the mice were treated with CyPGs or vehicle control as indicated in the text.
Treatment of Mice with PGs: Mice with FV-induced erythroleukemia or MIGR-BCR-ABL induced CML were treated on the indicated days with CyPGs. Mice were treated with a daily intraperitoneal injection of Δ^12-PGJ3 (0.01-0.1 mg/kg), 15d-PGJ2 (0.1 mg/kg), or 9,10-dihydro-15d-PGJ2 (0.1 mg/kg) for 7 days. All three compounds were formulated with hydroxypropyl-β-cyclodextrin (30% w/v; Sigma; vehicle control).
Stk^−/− mice are resistant to Friend virus infection so the leukemia developed by the transplanted mice is result of the transplanted LSCs and not FV infection. […] LSCs sorted from the spleens of FV-infected mice were transplanted into Stk^−/− mice (on a Balb/c background). After 6 weeks such mice were treated daily for 1 week with vehicle (hydroxypropyl-β-cyclodextrin), 15d-PGJ2 (0.05 mg/kg), or 9,10-dihydro-15d-PGJ2 (0.05 mg/kg) by intraperitoneal injection. The mice were sacrificed 51 days post LSC transplantation for analysis. An analysis of spleens of mice comparing splenomegaly in vehicle, 15d-PGJ2, or 9,10-dihydro-15d-PGJ2 treated transplanted mice was performed. Spleen weight compared to control (untransplanted mice) after treatment and WBC counts in the peripheral blood of the mice after treatment were examined, and a flow cytometric analysis of the spleen of untransplanted and LSC transplanted mice after treatment was performed. All data were mean±s.e.m. *p<0.05 compared to control or 9,10-dihydro-15d-PGJ2 treated groups. N=5 per group.

Entries after “also recorded” stand apart in the source; their conditions may differ.

With `CCCCC[C@H](O)/C=C/[C@H]1C(=O)C[C@H](O)[C@@H]1C/C=C\CCCC(=O)OC` [PGD2Me, 9α,15S-dihydroxy-11-oxo-prosta-5Z,13E-dien-1-oic acid, methyl ester], the “apoptosis of BCR-ABL+ LSCs by synthetic DP agonists (GFP+ cells)” value in assay [1] (25 nM PGD2Me or 100 nM ZK118182, 24 h) is given as “can induce apoptosis of LSCs”.

As for `CC/C=C\C[C@H](O)/C=C/[C@H]1C(=O)C=C[C@@H]1C/C=C\CCCC(=O)O` [PGJ3, reference compound], the “targeting of LSCs for apoptosis” value in the assay on LSCs is on record as “ineffective”. Further, in assay [2], the “increase in apoptosis of FV-LSCs” value came out at 2 fold.

Consider `COc1ccc(C2=NC(c3ccc(Cl)cc3)C(c3ccc(Cl)cc3)N2C(=O)N2CCNC(=O)C2)c(OC(C)C)c1` (stereo not shown) [nutlin], for which the “sensitivity of MEL cells to drugs” value in assay [3] was “not”; in assay [3] (listed as Nutlin), “lack of activation of p53 and apoptosis”.

Consider `O=C1c2c(O)ccc(O)c2C(=O)c2c(NCCNCCO)ccc(NCCNCCO)c21` [mitoxantrone], for which the “sensitivity of MEL cells to drugs” value in assay [3] is reported as “caused significant apoptosis; also recorded: exhibited sensitivity”.

For the molecule `O=C(NC(NC(=S)Nc1ccc(F)c([N+](=O)[O-])c1)C(Cl)(Cl)Cl)C(c1ccccc1)c1ccccc1` (stereo not shown) [CGK-733], the “block of Δ^12-PGJ3-dependent p53 expression by ATM inhibitors” value in the assay with p53 (preincubation, then Δ^12-PGJ3) is reported as “blocked the CyPG-dependent expression of p53”.

Consider `COc1cccc2c1C(=O)c1c(O)c3c(c(O)c1C2=O)C[C@@](O)(C(C)=O)C[C@@H]3O[C@H]1C[C@H](N)[C@H](O)[C@H](C)O1` [daunorubicin], for which the “sensitivity of MEL cells to drugs” value in assay [3] was “caused significant apoptosis; also recorded: exhibited sensitivity”.

Take `CCCCC[C@H](O)C/C=C1/C(=O)C=C[C@@H]1C/C=C\CCCC(=O)O` [Δ^12-PGJ2]: the “apoptosis of FV-LSCs” value in assay [2] was “able to induce apoptosis; also recorded: Responses similar to Δ^12-PGJ3”. Moreover, the “apoptosis of Sca1+GFP+Kit+ BCR-ABL+LSC from spleen” value in assay [1] is listed as “active”.

`Nc1ccn([C@@H]2O[C@H](CO)[C@@H](O)[C@@H]2O)c(=O)n1` [cytarabine]: the “sensitivity of MEL cells to drugs” value in assay [3] is “caused significant apoptosis; also recorded: exhibited sensitivity”.

For the molecule `CS(=O)(=O)c1cc(F)cc2c3c(n(Cc4ccc(Cl)cc4)c12)[C@@H](CC(=O)O)CC3` [MK0824], the “inhibition of Δ^12-PGJ3-induced apoptosis by DP antagonist” value in assay [1] (antagonist 10 nM, 2 h pretreatment, then 25 nM Δ^12-PGJ3, 36 h) is given as “inhibited”.

For the molecule `CC/C=C\C/C=C/C=C1/C(=O)C=C[C@@H]1C/C=C\CCCC(=O)O` [15d-PGJ3, reference compound], in the assay on LSCs, the “targeting of LSCs for apoptosis” value is listed as “targeted LSCs for apoptosis”. The “increase in apoptosis of FV-LSCs” value in assay [2] is given as ~75%.

For `CCCCC/C=C/C=C1/C(=O)C=C[C@@H]1C/C=C\CCCC(=O)O` [15d-PGJ2, reference compound], in assay [4] (0.05 mg/kg i.p. 7 d, flow cytometry day 14 post infection), the “LSCs (Sca1+Kit+M34+) in the spleen” value is “significant decrease in LSC numbers; also recorded: Identical results”. Besides, the “total leukocyte and reticulocyte counts” value in assay [4] (i.p. 7 days) is listed as “decreased to normal levels”. In addition, the “Friend virus viral replication” value in assay [4] (mouse, in vivo) is “does not affect Friend virus viral replication”. Also, the CFU-FV colony formation entry in assay [4] (spleen cells of treated mice plated without growth factors) is given as “significantly decreased the number of transformed leukemia cells”. Besides, the “hematocrit, WBC counts and reticulocyte counts” value in assay [5] (FV-induced leukemia, FIG. 3C) is given as “significantly decreased”. Further, in assay [5] (flow cytometry after 1 week i.p. treatment), the “LSCs (M34+Sca1+Kit+) in the spleen” value is “eradication of FV LSCs in the spleen and resolution of the diseases”. In assay [2], the “apoptosis of FV-LSCs” value was “able to induce apoptosis; also recorded: Responses similar to Δ^12-PGJ3”. In assay [1], the “apoptosis of Sca1+GFP+Kit+ BCR-ABL+LSC from spleen” value is “active; also recorded: significantly increased their apoptosis”.

As for `CCCCC[C@H](O)/C=C/[C@H]1C(=O)C=C[C@@H]1C/C=C\CCCC(=O)O` [PGJ2], the “apoptosis of FV-LSCs” value in assay [2] was “largely ineffective”. Besides, in the assay on p53 (10 or 25 nM, 12 h), the “p53 expression at transcript level” value is “only a minor degree”. In addition, in the assay on p53 (preincubated at 37° C. for 42 h before adding LSCs), the “p53 expression after preincubation of compound with media” value is given as “increased expression of p53”.

The values are drawn from US9623031B2, “Compositions, methods and kits for treating cancer” (priority 2011, dated 2017).
